{"source": "patent US20110200626A1", "about": "“IQGAP3 EPITOPE PEPTIDES AND VACCINES CONTAINING THE SAME” (Oncotherapy Science, Inc., priority 2008, published 2011)", "key": {"peptide-pulsed T2 cells [1]": {"test_system": "peptide-pulsed T2 cells", "experiment": "IFN-gamma ELISA assay on CTL lines (HLA-A*0201)", "assay_type": "cell-based, human", "details": "target cells pulsed with corresponding peptide vs without peptide"}, "peptide-pulsed T2 cells [2]": {"test_system": "peptide-pulsed T2 cells", "experiment": "IFN-gamma ELISA assay on CTL clones established by limiting dilution (HLA-A*0201)", "assay_type": "cell-based, human", "details": "peptide-pulsed target cells", "method": "The dilutions were made to have 0.3, 1, and 3 CTLs/well in 96 round-bottomed micro titer plate (Nalge Nunc International). CTLs were cultured with 1×10^4 cells/well of 2 kinds of human B-lymphoblastoid cell lines, 30 ng/ml of anti-CD3 antibody, and 125 U/ml of IL-2 in a total of 150 and/well of AIM-VMedium containing 5% AS. 50 mcl/well of IL-2 were added to the medium 10 days later so to reach a final concentration of 125 U/ml IL-2. CTL activity was tested on the 14th day, and CTL clones were expanded using the same method as described above (Uchida N et al., Clin Cancer Res 2004 Dec. 15, 10(24): 8577-86; Suda T et al., Cancer Sci 2006 May, 97(5): 411-9; Watanabe T et al., Cancer Sci 2005 August, 96(8): 498-506).\nSpecifically, peptide-pulsed A24 or T2 LCL (1×10^4/well) was prepared as stimulator cells. Cultured cells in 48 wells were used as responder cells. IFN-gamma ELISPOT assay and IFN-gamma ELISA assay were performed under manufacture procedure."}, "peptide-pulsed T2 cells [3]": {"test_system": "peptide-pulsed T2 cells", "experiment": "IFN-gamma ELISPOT assay on CTLs induced with HLA-A*0201 restricted peptides", "assay_type": "cell-based, human", "details": "against peptide-pulsed target cells compared with control without peptide"}, "[4]": {"test_system": "COS7 cells transfected with IQGAP3 and HLA-A*0201", "experiment": "Specific CTL activity against target cells exogenously expressing IQGAP3 and HLA-A*0201", "assay_type": "cell-based", "details": "for specific CTL activity of CTL clone against controls: COS7 cells expressing either HLA-A*0201 or IQGAP3 alone; for specific CTL activity of CTL clone: COS7 cells transfected with both IQGAP3 and HLA-A*0201", "description": "(§1) The cDNA encoding an open reading frame of target genes or HLA-A*0201 was amplified by PCR. The PCR-amplified products were cloned into pCAGGS vector. The plasmids were transfected into COST, which is the target genes and HLA-A*0201-negative cell line, using lipofectamine 2000 (Invitrogen) according to the manufacturer's recommended procedures. After 2 days from transfection, the transfected cells were harvested with versene (Invitrogen) and used as the target cells (5×10^4 cells/well) for CTL activity assay"}, "[5]": {"test_system": "peptide-pulsed A24LCL cells", "experiment": "IFN-gamma ELISA assay on CTL lines (HLA-A*2402)", "assay_type": "cell-based, human", "details": "target cells pulsed with corresponding peptide vs without peptide"}, "[6]": {"test_system": "COS7 cells transfected with IQGAP3 and HLA-A*2402", "experiment": "Specific CTL activity against target cells exogenously expressing IQGAP3 and HLA-A*2402", "assay_type": "cell-based", "description": "as §1, with “gene” for “genes”, “HLA-A24” for “HLA-A*0201”, “product was” for “products were”, “COS7,” for “COST,”, “HLA-A24-null” for “HLA-A*0201-negative”, “assay.” for “assay”"}, "[7]": {"test_system": "peptide-pulsed A24LCL cells", "experiment": "IFN-gamma ELISPOT assay on CTLs induced with HLA-A*2402 restricted peptides", "assay_type": "cell-based, human", "details": "against peptide-pulsed target cells compared with control without peptide, listed as IQGAP3-A24-9-779"}}, "note": "Entries after “also recorded” stand apart in the source; their conditions may differ. Ends that are not written are not given here."}
{"substance": "GLDDVSLPV [SEQ ID NO: 85]", "values": [{"measurement": "IFN-gamma production of established CTL lines (ELISA)", "setting": "peptide-pulsed T2 cells [1]", "result": "potent IFN-gamma production"}, {"measurement": "IFN-gamma production of CTL clones (ELISA)", "setting": "peptide-pulsed T2 cells [2]; listed as IQGAP3-A02-9-553", "result": "potent IFN-gamma production"}, {"measurement": "IFN-gamma production of peptide-induced CTLs (ELISPOT)", "setting": "peptide-pulsed T2 cells [3]; listed as IQGAP3-A02-9-553", "result": "potent IFN-gamma production ability"}, {"measurement": "specific CTL activity of CTL clone against controls", "setting": "[4]", "result": "no significant specific CTL activity"}, {"measurement": "specific CTL activity of CTL clone", "setting": "[4]; listed as IQGAP3-A02-9-553", "result": "potent CTL activity; also recorded: specific CTL activity"}]}
{"substance": "IYLEWLQYF [SEQ ID NO: 7]", "values": [{"measurement": "IFN-gamma production of established CTL lines (ELISA)", "setting": "[5]", "result": "potent IFN-gamma production"}, {"measurement": "specific CTL activity of CTL line against controls", "setting": "[6]; COS7 cells expressing either HLA-A*2402 or IQGAP3 alone", "result": "no significant specific CTL activity"}, {"measurement": "specific CTL activity of CTL line", "setting": "[6]; COS7 cells transfected with both IQGAP3 and HLA-A*2402, listed as IQGAP3-A24-9-779", "result": "potent CTL activity; also recorded: specific CTL activity"}, {"measurement": "IFN-gamma production of peptide-induced CTLs (ELISPOT)", "setting": "[7]", "result": "potent IFN-gamma production ability"}]}
{"substance": "LLYYrFLNPA (LLYYRFLNPA; not fully specified (residue 5); printed as LLYYrFLNPA) [SEQ ID NO: 121]", "values": [{"measurement": "IFN-gamma production of established CTL lines (ELISA)", "setting": "peptide-pulsed T2 cells [1]", "result": "potent IFN-gamma production"}, {"measurement": "IFN-gamma production of CTL clones (ELISA)", "setting": "peptide-pulsed T2 cells [2]; listed as IQGAP3-A02-10-1174", "result": "potent IFN-gamma production"}, {"measurement": "IFN-gamma production of peptide-induced CTLs (ELISPOT)", "setting": "peptide-pulsed T2 cells [3]; listed as IQGAP3-A02-10-1174", "result": "potent IFN-gamma production ability"}]}
{"substance": "SLFLFRLGL [SEQ ID NO: 75]", "values": [{"measurement": "IFN-gamma production of established CTL lines (ELISA)", "setting": "peptide-pulsed T2 cells [1]", "result": "potent IFN-gamma production"}, {"measurement": "IFN-gamma production of CTL clones (ELISA)", "setting": "peptide-pulsed T2 cells [2]; listed as IQGAP3-A02-9-146", "result": "potent IFN-gamma production"}, {"measurement": "IFN-gamma production of peptide-induced CTLs (ELISPOT)", "setting": "peptide-pulsed T2 cells [3]; listed as IQGAP3-A02-9-146", "result": "potent IFN-gamma production ability"}]}
{"substance": "VLNDYLEET [SEQ ID NO: 99]", "values": [{"measurement": "IFN-gamma production of established CTL lines (ELISA)", "setting": "peptide-pulsed T2 cells [1]", "result": "potent IFN-gamma production"}, {"measurement": "IFN-gamma production of peptide-induced CTLs (ELISPOT)", "setting": "peptide-pulsed T2 cells [3]; listed as IQGAP3-A02-9-1234", "result": "potent IFN-gamma production ability"}, {"measurement": "specific CTL activity of CTL clone against controls", "setting": "[4]", "result": "no significant specific CTL activity"}, {"measurement": "specific CTL activity of CTL clone", "setting": "[4]; listed as IQGAP3-A02-9-1234", "result": "potent CTL activity; also recorded: specific CTL activity"}]}
